The values below come from ChEMBL document CHEMBL1201862, “PubChem BioAssay data set” (2004).

Structures are written as SMILES. Activity calls are given as the source filed them.

For experiment [1], the target named is T1, Replicative DNA helicase DnaB (Mycobacterium tuberculosis, UniProt P9WMR3).
T1 sequence (P9WMR3 whole entry): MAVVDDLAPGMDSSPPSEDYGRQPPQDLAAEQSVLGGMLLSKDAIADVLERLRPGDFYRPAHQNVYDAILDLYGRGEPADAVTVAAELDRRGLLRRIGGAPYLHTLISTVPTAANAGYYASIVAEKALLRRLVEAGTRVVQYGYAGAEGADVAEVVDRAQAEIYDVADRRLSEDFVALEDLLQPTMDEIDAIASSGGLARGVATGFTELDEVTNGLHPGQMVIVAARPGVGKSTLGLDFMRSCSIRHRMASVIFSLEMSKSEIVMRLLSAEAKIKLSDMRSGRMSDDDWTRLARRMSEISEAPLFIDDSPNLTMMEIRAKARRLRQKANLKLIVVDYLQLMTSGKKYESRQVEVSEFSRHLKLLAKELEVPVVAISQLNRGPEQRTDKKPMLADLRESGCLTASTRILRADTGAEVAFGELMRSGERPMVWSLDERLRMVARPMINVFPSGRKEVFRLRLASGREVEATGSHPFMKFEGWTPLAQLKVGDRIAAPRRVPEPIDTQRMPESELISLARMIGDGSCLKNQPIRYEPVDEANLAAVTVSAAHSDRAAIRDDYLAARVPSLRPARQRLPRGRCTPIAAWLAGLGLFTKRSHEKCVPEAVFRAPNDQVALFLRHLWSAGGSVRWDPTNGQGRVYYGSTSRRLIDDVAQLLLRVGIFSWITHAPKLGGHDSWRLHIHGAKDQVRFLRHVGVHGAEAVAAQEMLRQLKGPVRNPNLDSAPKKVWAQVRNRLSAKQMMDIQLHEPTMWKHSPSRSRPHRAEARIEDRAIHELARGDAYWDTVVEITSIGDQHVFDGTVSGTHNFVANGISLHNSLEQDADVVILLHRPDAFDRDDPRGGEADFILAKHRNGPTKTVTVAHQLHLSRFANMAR
Kind of experiment: DnaB intein splicing inhibitors, dose response, biochemical, cell-free fluorescence (AID 449749). It counts as functional.

The next experiment has as its target T2, Protein RecA (Mycobacterium tuberculosis, UniProt P9WHJ3).
T2 sequence (P9WHJ3 whole entry): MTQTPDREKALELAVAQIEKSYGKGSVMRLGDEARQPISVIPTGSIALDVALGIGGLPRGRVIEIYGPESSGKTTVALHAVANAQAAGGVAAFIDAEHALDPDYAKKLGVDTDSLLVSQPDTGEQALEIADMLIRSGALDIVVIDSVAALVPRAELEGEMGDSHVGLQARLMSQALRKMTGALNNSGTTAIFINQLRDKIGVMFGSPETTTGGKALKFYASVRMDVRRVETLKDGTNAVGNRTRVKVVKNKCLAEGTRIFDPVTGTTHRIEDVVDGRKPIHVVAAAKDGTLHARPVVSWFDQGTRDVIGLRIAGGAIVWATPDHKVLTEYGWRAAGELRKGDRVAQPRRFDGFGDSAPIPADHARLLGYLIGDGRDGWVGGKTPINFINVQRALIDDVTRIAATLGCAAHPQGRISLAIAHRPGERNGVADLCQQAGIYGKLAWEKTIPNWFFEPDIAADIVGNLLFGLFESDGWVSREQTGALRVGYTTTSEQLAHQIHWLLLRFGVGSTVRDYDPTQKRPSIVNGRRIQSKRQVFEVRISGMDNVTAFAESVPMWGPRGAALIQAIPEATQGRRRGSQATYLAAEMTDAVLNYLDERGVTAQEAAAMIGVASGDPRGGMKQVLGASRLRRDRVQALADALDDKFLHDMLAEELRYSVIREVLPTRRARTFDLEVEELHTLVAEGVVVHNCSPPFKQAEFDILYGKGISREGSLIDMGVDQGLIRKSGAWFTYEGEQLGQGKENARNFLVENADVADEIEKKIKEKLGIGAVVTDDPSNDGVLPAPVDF
Kind of experiment: Fluorescence Cell-Free Homogeneous Dose Retest to Identify Inhibitors of RecA-Intein Splicing Activity. [Related pubchem assays (depositor defined):AID2097, AID2223, AID489010, AID492950]. It counts as functional.

A short description of experiment [2]: Luminescence Cell-Based Dose Response HTS to Identify Activators of Luciferase Translation or Activity in H4 […] Cells. [Related pubchem assays: 1829 (Project Summary), 1814 (Primary HTS)]. It counts as functional.
The next experiment relates to H4. Kind of experiment: Luminescence Cell-Based Dose Response HTS to Identify Activators of 5'UTR Stem-Loop Driven Prion Protein mRNA Translation in H4 Neuroglioblastoma Cells. [Related pubchem assays: 1829 (Project Summary), 1814 (Primary HTS)]. Conditions: Homo sapiens. The experiment is classed as functional.
For another experiment, the target named is T3, Protein skinhead-1 (Caenorhabditis elegans, UniProt P34707).
T3 sequence (P34707 whole entry): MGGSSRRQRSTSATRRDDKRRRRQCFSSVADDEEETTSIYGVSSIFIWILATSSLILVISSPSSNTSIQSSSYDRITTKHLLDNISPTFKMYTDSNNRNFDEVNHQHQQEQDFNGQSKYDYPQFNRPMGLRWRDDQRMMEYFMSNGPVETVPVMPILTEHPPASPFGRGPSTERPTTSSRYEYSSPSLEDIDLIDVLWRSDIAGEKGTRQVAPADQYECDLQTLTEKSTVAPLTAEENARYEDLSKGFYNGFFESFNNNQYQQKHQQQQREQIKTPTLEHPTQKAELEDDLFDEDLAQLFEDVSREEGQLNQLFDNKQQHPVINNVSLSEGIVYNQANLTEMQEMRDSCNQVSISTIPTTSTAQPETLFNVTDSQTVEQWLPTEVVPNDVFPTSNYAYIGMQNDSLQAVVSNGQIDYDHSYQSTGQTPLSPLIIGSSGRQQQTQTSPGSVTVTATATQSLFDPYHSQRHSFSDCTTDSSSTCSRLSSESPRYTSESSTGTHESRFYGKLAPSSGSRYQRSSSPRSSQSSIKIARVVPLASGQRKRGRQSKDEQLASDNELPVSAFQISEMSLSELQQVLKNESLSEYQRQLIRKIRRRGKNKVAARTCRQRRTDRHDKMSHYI
It counts as functional.

Experiment [3] is described as follows: reduction of Shn3 3'UTR-driven luciferase in osteoblasts – cell-based, Clone20 osteoblasts, firefly luciferase, cherry-picked, dose response (AID 624132).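 Further: firefly luciferase luminescence from reporter carrying the Shn3 3'UTR in osteoblasts.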 The experiment is classed as functional.
A further experiment can be described thus: cells. The experiment is classed as functional.
Experiment [4] in a line: viability of uninfected HEp-2 cells – cell-based, HTS, cytotoxicity control for RSV inhibitor project, dose response (AID 2410). Particulars: human respiratory syncytial virus. The experiment is classed as functional.
Experiment [5] deals with T4, Calpain-2 catalytic subunit (Sus scrofa, UniProt P43367).
T4 sequence (P43367 whole entry): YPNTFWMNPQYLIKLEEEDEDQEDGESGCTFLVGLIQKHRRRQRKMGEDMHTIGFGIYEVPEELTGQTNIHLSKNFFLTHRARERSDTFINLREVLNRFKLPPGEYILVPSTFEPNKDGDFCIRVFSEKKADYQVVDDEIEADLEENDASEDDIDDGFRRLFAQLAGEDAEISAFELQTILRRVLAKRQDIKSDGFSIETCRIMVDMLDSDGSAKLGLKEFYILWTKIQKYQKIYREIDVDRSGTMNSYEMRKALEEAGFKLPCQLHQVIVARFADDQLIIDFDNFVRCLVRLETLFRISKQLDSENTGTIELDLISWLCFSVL
Kind of experiment: m-calpain protease blockers, concentration series – biochemical, fluorogenic peptide substrate, dose response (AID 1420). The experiment is classed as functional.

Experiment [6] is described as follows: viability of HCT116 lacking mutant beta-catenin – cell-based, human colon tumor, dose response (AID 1045).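 Further: HCT116 colon tumor cells with beta catenin knocked out; cells exposed to compound for 60 hours.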 The experiment is classed as functional.
Another experiment deals with Large T antigen (Simian virus 40, UniProt P03070). It counts as functional, Betapolyomavirus macacae.
Large T antigen, sequence (P03070 whole entry): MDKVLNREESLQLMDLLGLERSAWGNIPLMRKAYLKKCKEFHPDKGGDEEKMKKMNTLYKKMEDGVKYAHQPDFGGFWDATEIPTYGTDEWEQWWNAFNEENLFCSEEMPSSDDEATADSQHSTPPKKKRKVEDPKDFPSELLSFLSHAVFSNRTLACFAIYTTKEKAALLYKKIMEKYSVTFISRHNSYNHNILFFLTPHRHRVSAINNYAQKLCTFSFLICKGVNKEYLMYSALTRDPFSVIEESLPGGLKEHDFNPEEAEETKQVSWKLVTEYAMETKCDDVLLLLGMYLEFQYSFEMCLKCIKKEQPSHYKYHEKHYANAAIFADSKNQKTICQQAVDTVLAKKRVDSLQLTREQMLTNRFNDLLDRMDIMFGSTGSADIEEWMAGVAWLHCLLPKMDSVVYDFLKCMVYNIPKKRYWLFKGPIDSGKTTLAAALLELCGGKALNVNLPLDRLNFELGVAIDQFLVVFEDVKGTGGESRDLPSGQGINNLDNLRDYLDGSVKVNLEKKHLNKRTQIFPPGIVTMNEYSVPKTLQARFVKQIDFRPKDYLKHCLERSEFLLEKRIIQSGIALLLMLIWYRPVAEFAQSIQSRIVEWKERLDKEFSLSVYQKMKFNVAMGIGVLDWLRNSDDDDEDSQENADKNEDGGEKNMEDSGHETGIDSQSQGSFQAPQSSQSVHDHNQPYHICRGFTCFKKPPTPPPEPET
Experiment [7] in a line: NIH-3T3 fibroblast cytotoxicity, dose response, cytotoxicity control, cell-based, fluorescence, Alamar Blue, secondary assay (AID 2327).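 Further: NIH-3T3 mouse fibroblasts cultured with fluconazole at 8 µg/mL.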 It counts as functional.
Experiment [8] in a line: fluconazole-exposed Candida albicans growth modulators – fluorescence, retest, confirmation (AID 2467). The experiment is classed as functional, cell-based.
The subject of another experiment is H9c2. Kind of experiment: cells. It counts as functional, cell-based. Particulars: Rattus norvegicus, H9c2, Myocardium.

On to `Cc1ccc(C(=O)C(OC(=O)CN2C(=O)c3ccccc3C2=O)c2ccccc2)cc1C` (stereo not drawn), for which, in [1], the AC50 was 66.8 µM (active). Further, the EC50 at Protein RecA was > 380 µM (inactive).
On to `COc1cc2ccccc2cc1C(=O)Nc1nccs1`, for which the EC50 was 59.4 µM (active) in experiment [2] and 22.8 µM (active) in the experiment on H4. The IC50 on Protein skinhead-1 was 5.97 µM (active).
`Cc1onc(-c2c(Cl)cccc2Cl)c1C(=O)N[C@@H]1C(=O)N2[C@@H]1SC(C)(C)[C@@H]2C(=O)O` [DICLOXACILLIN SODIUM]: the AC50 in [3] is 46.7 µM (active).
On to `CCCC(C(=O)Nc1ccc(S(=O)(=O)N2CCOCC2)cc1)c1ccccc1` (stereo not drawn), for which the IC50 on Protein skinhead-1 is > 100 µM (inactive).
Turning to `O=C(C/C=N\OCc1ccc([N+](=O)[O-])cc1)Nc1ccccc1`, the IC50 in the experiment “cells” was 16.1 µM (active).
Take `CCOc1ccccc1C(=O)Nc1cc2c(cc1N1CCCC1)n(CC)c(=O)n2CC`: in experiment [4], the cytotoxic concentration (CC50) is 13.5 µM (active).
With `C=CC[C@H](CC(=O)N(CCO)Cc1ccccc1)C(=O)NC[C@H](OC(=O)[C@@H](CC=C)Cc1ccc(F)cc1)c1ccccc1`, the AC50 in [3] is 10.7 µM (active).
For the compound `COc1ccc2c(c1)CC/C(=C/c1ccco1)C2=O`, the IC50 on Protein skinhead-1 is 28.9 µM (active).
On the same count and under the same terms, the value for `Cc1ccccc1-c1noc(-c2cccs2)n1` was 7.91 µM (active).
For `CCCCC(=O)Nc1cccc(-c2csc(-c3ccccc3)n2)c1`, the CC50 in [4] is 23.9 µM (active).
On the same count and under the same terms, next, `O=S(=O)(c1ccccc1)N1CCC(c2nc(O)c3nnn(Cc4c(F)cccc4Cl)c3n2)CC1`: 26 µM (active).
`CCC(C(=O)N(C(C)C)C(C)C)c1ccccc1` (stereo not drawn): the IC50 at Protein skinhead-1 was > 100 µM (inactive).
With `CCOC(=O)N1CCN(c2ccc([N+](=O)[O-])cc2)CC1`, the cytotoxic concentration (CC50) in experiment [4] is 26 µM (active). For the same compound, the IC50 in experiment [5] is listed as 30.7 µM (not active).
Regarding `CCC(=O)Nc1cccc(-c2nc3ccc(C)cc3o2)c1`, the CC50 in experiment [4] is 39.4 µM (active).
Regarding `COC(=O)C1=C(C)N(c2ccc(F)c(Cl)c2)C(=O)C1`, the EC50 in experiment [6] was 206 µM (active).
As to `CCCCCOc1ccccc1C(=O)NCCC(=O)O`, the IC50 at Protein skinhead-1 is > 100 µM (inactive).
On to `O=C(O)CN1C(=O)/C(=C\c2cccc(OC(=O)c3ccco3)c2)SC1=S`, for which the AC50 in [1] is 29.5 µM (active). Also, the EC50 at Protein RecA is 22.6 µM (active).
Turning to `CNC(=O)Oc1ccc2ncccc2c1`, the IC50 on Large T antigen was > 100 µM (active).
Consider `CCCCCCOc1ccc(C(=O)n2cnc(N)n2)cc1`, for which the AC50 in experiment [1] is 21.6 µM (active). Moreover, the EC50 on Protein RecA was 1.46 µM (active).
On to `Nc1cc(S(=O)(=O)c2ccc(O)c(N)c2)ccc1O`, for which, on Large T antigen, the IC50 was 20.5 µM (active).
As to `CCOC(=O)c1nnc(-c2cccs2)nc1Oc1ccc(Cl)cc1`, the AC50 in [1] was 24.5 µM (active). Moreover, the EC50 on Protein RecA was 16.5 µM (active).
`O=C1c2ccccc2C(=O)N1CCCCN(C(=O)c1cccc([N+](=O)[O-])c1)c1ccc(Cl)cc1`: in [4], the CC50 was 43.7 µM (active).
With `Cc1cc(OC(=O)c2ccccc2)n(CCC#N)n1`, the AC50 in experiment [1] is 8.7 µM (active). The EC50 at Protein RecA is 2.67 µM (active).
`CCC(C)c1ccc(NC(=O)Nc2cccnc2)cc1` (stereo not drawn): in [4], the CC50 was 22.7 µM (active).
Same read-out and setting: the value for `COc1ccc(Cl)cc1NC(=O)C(C)OC(=O)c1ccc(NS(=O)(=O)c2ccc3[nH]c(O)nc3c2)cc1` (stereo not drawn) was 15.8 µM (active).
For the compound `Cc1ccc(S(=O)(=O)NCC2CCC(C(=O)NCCCN3CCOCC3)CC2)cc1` (stereo not drawn), in experiment [1], the AC50 was > 380 µM (inactive). Also, at Protein RecA, the EC50 was > 380 µM (inactive).
Consider `COc1ccc(-c2[nH]nc3c2C(c2ccsc2)C(C#N)=C(N)O3)cc1` (stereo not drawn), for which the AC50 in [1] was 19.2 µM (active). At Protein RecA, the EC50 is 13.3 µM (active).
`CCOc1cc(C=O)cc(N=Nc2cccc([N+](=O)[O-])c2)c1O`: the EC50 in experiment [7] is > 150 µM (inactive); in experiment [8], 4.04 µM (active). For the same compound, the IC50 in the experiment “cells” is 7.46 µM (active).
Turning to `CCOC(=O)C1CCN(c2cc3c(cc2NC(=O)c2ccccc2Br)n(C)c(=O)n3C)CC1`, the IC50 in the experiment on H9c2 is 67.2 µM (inactive). For the same compound, the AC50 in [3] is 21.3 µM (active).
Take `Cc1ccc2ncnc(Nc3cccc([N+](=O)[O-])c3)c2c1`: the IC50 on Protein skinhead-1 is > 100 µM (inactive).
For the compound `O=C(CCl)Nc1cccc(CP(=O)(c2ccccc2)c2ccccc2)c1`, in experiment [1], the AC50 was 93.2 µM (active). Besides, on Protein RecA, the EC50 is 18.4 µM (active).
In the case of `C=CCn1c(=S)[nH]c2scc(-c3ccco3)c2c1=O`, the IC50 at Large T antigen was 24.1 µM (active).
With `COc1ccc(N2C(=O)/C(=C/c3ccc([N+](=O)[O-])cc3)C=C2c2ccccc2)cc1`, the IC50 on Protein skinhead-1 was > 100 µM (inactive).
Turning to `Fc1ccc(OCc2nc(-c3cccs3)no2)cc1`, the half-maximal inhibitory concentration (IC50) at Protein skinhead-1 was 24.5 µM (active).
